Source: article PMC12689286, “Enhanced therapeutics of cabazitaxel via polycarboxylate conjugation: improved solubility, safety, and antitumor efficacy” (Frontiers in Immunology, 2025)

Test system: thymus
Test: Thymic toxicity in H22 tumor-bearing mice (thymus weight, thymocyte apoptosis)
Type: in vivo, KM mice
Procedure: H22 hepatoma model: Female KM mice were subcutaneously implanted with H22 cells (2×10^6 cells/mouse) and assigned to six groups: (a) Vehicle control; (b) CTX (9.6 μmol/kg in 5% glucose with 2.5% ethanol/2.5% Tween 80); (c) CTX-TTHA (9.6 μmol/kg in saline); (d) CTX-DTPA (9.6 μmol/kg in saline); (e) CTX-TTHA (19.1 μmol/kg in saline); (f) CTX-DTPA (19.1 μmol/kg in saline).
Gently mix 1×10^6 thymocytes with FITC Anexin V (5 μl) and PI (10 μl), and incubate in the dark for 15 minutes, RT. Analyze by flow cytometry. Thymocytes were stained with anti-mouse CD3e cyanine 5.5 (eBioscience, 85-45-0031-82), anti-CD4 PE (eBioscience, 85-12-0042-82), anti-CD8a FITC (4°C 30 min) and detected by flow cytometry.

SMILES: CO[C@H]1C(=O)[C@]2(C)[C@@H](OC)C[C@H]3OC[C@@]3(OC(C)=O)[C@H]2[C@H](OC(=O)c2ccccc2)[C@]2(O)C[C@H](OC(=O)[C@H](O)[C@@H](NC(=O)OC(C)(C)C)c3ccccc3)C(C)=C1C2(C)C [CTX, Cabazitaxel]
- thymic weight relative to normal (thymic atrophy): 31 % of normal weight
- thymocyte apoptosis rate (Annexin V/PI flow cytometry): 66.8%
